# Laboratory results taken from patent US20040102431A1, “Substituted amino-aza-cycloalkanes useful against malaria” (priority 2000, published 2004).
# Molecular target: plasmepsin II (Plasmodium falciparum, UniProt P46925)
# Assay: biochemical
# Conditions: Additional Examples table; FRET, pH 5, 37° C., 40 min, substrate 1 μM; read-out: IC50 (nM) on plasmepsin II
# plasmepsin II, sequence (P46925 125-453): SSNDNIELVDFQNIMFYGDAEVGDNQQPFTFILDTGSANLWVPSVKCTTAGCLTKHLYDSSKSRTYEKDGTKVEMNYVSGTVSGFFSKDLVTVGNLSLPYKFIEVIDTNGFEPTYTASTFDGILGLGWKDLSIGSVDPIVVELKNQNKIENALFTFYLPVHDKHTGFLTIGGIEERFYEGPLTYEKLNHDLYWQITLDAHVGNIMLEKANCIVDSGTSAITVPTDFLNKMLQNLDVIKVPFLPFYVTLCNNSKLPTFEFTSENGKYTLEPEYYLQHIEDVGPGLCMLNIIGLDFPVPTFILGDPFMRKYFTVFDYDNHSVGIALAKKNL
row,IC50,Structure (SMILES)
1,20 nM,"CCCCCc1ccc(C(=O)N(Cc2ccc(-c3cccnc3)cc2)C2CCN(CCC(C)C)CC2)cc1 [Example 39, N-[1-(3-Methylbutyl)piperidin-4-yl]-4-pentyl-N-(4-pyridin-3-yl-benzyl)benzamide]"
2,25 nM,"CCCCCc1ccc(C(=O)N(Cc2ccc(-c3ccc(C#N)cc3)cc2)C2CCN(CC3=CCCCC3)CC2)cc1 [Example 40, N-(4′-Cyanobiphenyl-4-ylmethyl)-N-(1-cyclohex-1-enylmethyl-piperidin-4-yl)-4-pentylbenzamide]"
3,25 nM,"CCCCCc1ccc(C(=O)N(Cc2ccc(-c3ccc(OC)c(OC)c3)cc2)C2CCN(Cc3ccncc3)CC2)cc1 [Example 41, N-(3′,4′-Dimethoxybiphenyl-4-ylmethyl)-4-pentyl-N-(1-pyridin-4-ylmethylpiperidin-4-yl)benzamide]"
4,28 nM,"CCCCCc1ccc(C(=O)N(Cc2ccc(-c3ccc(C#N)cc3)cc2)C2CCN(Cc3ccncc3)CC2)cc1 [Example 42, N-(4′-Cyano-biphenyl-4-ylmethyl)-4-pentyl-N-(1-pyridin-4-ylmethylpiperidin-4-yl)benzamide]"
5,31 nM,"CCCCCc1ccc(C(=O)N(Cc2ccc(-c3ccc(OC)c(OC)c3)cc2)C2CCN(Cc3ccoc3)CC2)cc1 [Example 43, N-(3′,4′-Dimethoxybiphenyl-4-ylmethyl)-N-(1-furan-3-ylmethylpiperidin-4-yl)-4-pentylbenzamide]"
6,39 nM,"CCCCCc1ccc(C(=O)N(Cc2ccc(-c3ccc(OCCO)cc3)cc2)C2CCN(Cc3ccncc3)CC2)cc1 [Example 44, N-[4′-(2-Hydroxyethoxy)-biphenyl-4-ylmethyl]-4-pentyl-N-(1-pyridin-4-ylmethylpiperidin-4-yl)benzamide]"
7,42 nM,"CCCCCc1ccc(C(=O)N(Cc2ccc(-c3cccnc3)cc2)C2CCN(Cc3ccsc3)CC2)cc1 [Example 45, 4-Pentyl-N-(4-pyridin-3-yl-benzyl)-N-(1-thiophen-3-ylmethylpiperidin-4-yl)benzamide]"
8,45 nM,"CCCCCc1ccc(C(=O)N(Cc2ccc(-c3ccc(OC)c(OC)c3)cc2)C2CCN(Cc3cccnc3)CC2)cc1 [Example 46, N-(3′,4′-Dimethoxybiphenyl-4-ylmethyl)-4-pentyl-N-(1-pyridin-3-ylmethylpiperidin-4-yl)benzamide]"
9,46 nM,"CCCCCc1ccc(C(=O)N(Cc2ccc(-c3cccnc3)cc2)C2CCN(CC3CCCCC3)CC2)cc1 [Example 47, N-(1-Cyclohexylmethyl-piperidin-4-yl)-4-pentyl-N-(4-pyridin-3-yl-benzyl)benzamide]"
10,48 nM,"CCCCCc1ccc(C(=O)N(Cc2ccc(-c3ccc(OC)c(OC)c3)cc2)C2CCN(Cc3ccccc3)CC2)cc1 [Example 48, N-(1-Benzylpiperidin-4-yl)-N-(3′,4′-dimethoxybiphenyl-4-ylmethyl)-4-pentylbenzamide]"
11,52 nM,"CCCCCc1ccc(C(=O)N(Cc2ccc(-c3ccc4c(c3)OCO4)cc2)C2CCN(Cc3ccoc3)CC2)cc1 [Example 49, N-(4-Benzo[1,3]dioxol-5-yl-benzyl)-N-(1-furan-3-ylmethylpiperidin-4-yl)-4-pentylbenzamide]"
12,54 nM,"CCCCCc1ccc(C(=O)N(Cc2ccc(-c3ccc4c(c3)OCO4)cc2)C2CCN(Cc3ccncc3)CC2)cc1 [Example 50, N-(4-Benzo[1,3]dioxol-5-yl-benzyl)-4-pentyl-N-(1-pyridin-4-ylmethylpiperidin-4-yl)benzamide]"
13,57 nM,"CCCCCc1ccc(C(=O)N(Cc2ccc(-c3ccc(OCCO)cc3)cc2)C2CCN(Cc3ccoc3)CC2)cc1 [Example 51, N-(1-Furan-3-ylmethypiperidin-4-yl)-N-[4′-(2-hydroxyethoxy)biphenyl-4-ylmethyl]-4-pentylbenzamide]"
14,58 nM,"CCCCCc1ccc(C(=O)N(Cc2ccc(-c3ccc4c(c3)OCO4)cc2)C2CCN(Cc3ccccc3)CC2)cc1 [Example 52, N-(4-Benzo[1,3]dioxol-5-yl-benzyl)-N-(1-benzylpiperidin-4-yl)-4-pentylbenzamide]"
15,61 nM,"CCCCCc1ccc(C(=O)N(Cc2ccc(-c3ccccc3F)cc2)C2CCN(Cc3ccccc3)CC2)cc1 [Example 53, N-(1-Benzylpiperidin-4-yl)-N-(2′-fluorobiphenyl-4-ylmethyl)-4-pentylbenzamide]"
16,64 nM,"CCCCCc1ccc(C(=O)N(Cc2ccc(-c3cccnc3)cc2)C2CCN(Cc3ccoc3)CC2)cc1 [Example 54, N-(1-Furan-3-ylmethylpiperidin-4-yl)-4-pentyl-N-(4-pyridin-3-yl-benzyl)benzamide]"
17,68 nM,"CCCCCc1ccc(C(=O)N(Cc2ccc(-c3ccc(C#N)cc3)cc2)C2CCN(Cc3cccnc3)CC2)cc1 [Example 55, N-(4′-Cyanobiphenyl-4-ylmethyl)-4-pentyl-N-(1-pyridin-3-ylmethylpiperidin-4-yl)benzamide]"
18,71 nM,"CCCCCc1ccc(C(=O)N(Cc2ccc(-c3ccccc3)cc2)C2CCN(Cc3ccc(OC)cc3)CC2)cc1 [Example 56, N-Biphenyl-4-ylmethyl-N-[1-(4-methoxybenzyl)piperidin-4-yl]-4-pentylbenzamide]"
19,75 nM,"CCCCCc1ccc(C(=O)N(Cc2ccc(-c3ccc4c(c3)OCO4)cc2)C2CCN(CC3=CCCCC3)CC2)cc1 [Example 57, N-(4-Benzo[1,3]dioxol-5-yl-benzyl)-N-(1-cyclohex-1-enylmethyl-piperidin-4-yl)-4-pentyl-benzamide]"
20,79 nM,"CCCCCc1ccc(C(=O)N(Cc2ccc(OCc3ccc(F)cc3)cc2)C2CCN(Cc3ccccc3)CC2)cc1 [Example 58, N-(1-Benzyl-piperidin-4-yl)-N-[4-(4-fluoro-benzyloxy)-benzyl]-4-pentyl-benzamide]"
21,81 nM,"CCCCCc1ccc(C(=O)N(Cc2ccc(-c3ccc(C#N)cc3)cc2)C2CCN(Cc3ccccc3)CC2)cc1 [Example 59, N-(1-Benzyl-piperidin-4-yl)-N-(4′-cyano-biphenyl-4-ylmethyl)-4-pentyl-benzamide]"
22,87 nM,"CCCCCc1ccc(C(=O)N(Cc2ccc(-c3ccccc3F)cc2)C2CCN(Cc3ccoc3)CC2)cc1 [Example 60, N-(2′-Fluorobiphenyl-4-ylmethyl)-N-(1-furan-3-ylmethylpiperidin-4-yl)-4-pentylbenzamide]"
23,89 nM,"CCCCCc1ccc(C(=O)N(Cc2ccc(-c3cccnc3)cc2)C2CCN(CC3=CCCCC3)CC2)cc1 [Example 61, N-(1-Cyclohex-1-enylmethyl-piperidin-4-yl)-4-pentyl-N-(4-pyridin-3-yl-benzyl)benzamide]"
24,90 nM,"CCCCCc1ccc(C(=O)N(Cc2ccc(-c3ccc4c(c3)OCO4)cc2)C2CCN(Cc3ccc(O)cc3)CC2)cc1 [Example 62, N-(4-Benzo[1,3]dioxol-5-yl-benzyl)-N-[1-(4-hydroxybenzyl)piperidin-4-yl]-4-pentylbenzamide]"
25,95 nM,"CCCCCc1ccc(C(=O)N(Cc2ccc(-c3ccccc3F)cc2)C2CCN(Cc3ccncc3)CC2)cc1 [Example 63, N-(2′-Fluorobiphenyl-4-ylmethyl)-4-pentyl-N-(1-pyridin-4-ylmethyl-piperidin-4-yl)benzamide]"
26,102 nM,"CCCCCc1ccc(C(=O)N(Cc2ccc(-c3cccnc3)cc2)C2CCN(Cc3ccncc3)CC2)cc1 [Example 64, 4-Pentyl-N-(4-pyridin-3-yl-benzyl)-N-(1-pyridin-4-ylmethylpiperidin-4-yl)benzamide]"
